This assay deals with NICD (Notch intracellular domain) CSL-bla reporter in HeLa cells. Briefly: Notch assay (CellSensor T-REx NICD CSL-bla HeLa beta-lactamase reporter; Method 1 / Method 2). The settings on record: Homo sapiens, 10 μM compound, Method 2 (40 nL of 1000× compound added to plate with Echo), read-out: inhibiton (%) at 10 μM. The class given is cell-based. The gist of the method: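 HeLa cells carrying doxycycline-inducible NICD and a CSL-driven beta-lactamase reporter, 10^3 cells/well, were treated with compound plus doxycycline for 16-20 h at 37 °C. CCF4-AM substrate was loaded for 4 h at room temperature; background-subtracted blue (460 nm)/green (530 nm) emission ratio taken per well.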
`O=C(NCCCO)[C@H](Cc1ccccc1)N1CC2N(C(=O)OCCc3ccc(O)cc3)O[C@H](Cc3ccccc3)C(=O)N2[C@@H](Cc2ccccc2)C1=O` (stereo partly drawn) [Compound I-81, 4-hydroxyphenethyl (3R,6S)-3,6-dibenzyl-8-((S)-1-((3-hydroxypropyl)amino)-1-oxo-3-phenylpropan-2-yl)-4,7-dioxohexahydro-pyrazino[2,1-c] [1,2,4]oxadiazine-1(6H)-carboxylate]: the inhibition at 10 µM turned out to be 53%.

`CCCC[C@@H](C(=O)NCCC(C)C)N1CC2N(C(=O)OCCc3ccccc3)O[C@H](Cc3ccccc3)C(=O)N2[C@@H](Cc2ccccc2)C1=O` (stereo partly drawn) [Compound I-82, phenethyl (3R,6S)-3,6-dibenzyl-8-((S)-1-(isopentylamino)-1-oxohexan-2-yl)-4,7-dioxohexahydro-pyrazino[2,1-c] [1,2,4]oxadiazine-1(6H)-carboxylate]: the inhibition at 10 µM worked out at 51.2%.

With `O=C(NCCc1ccccc1)[C@H](Cc1ccccc1)N1CC2N(C(=O)OCCc3ccc(O)cc3)O[C@H](Cc3ccc(O)cc3)C(=O)N2[C@@H](Cc2ccccc2)C1=O` (stereo partly drawn) [Compound I-83, 4-hydroxyphenethyl (3R,6S)-6-benzyl-3-(4-hydroxybenzyl)-4,7-dioxo-8-((S)-1-oxo-1-(phenethylamino)-3-phenylpropan-2-yl)hexahydropyrazino [2,1-c][1,2,4]oxadiazine-1(6H)-carboxylate], the inhibition at 10 µM was 76.2%.

For `CC(C)CCOC(=O)N1O[C@H](C)C(=O)N2C1CN([C@@H](Cc1ccccc1)C(=O)NCCC(N)=O)C(=O)[C@@H]2Cc1ccccc1` (stereo partly drawn) [Compound I-84, isopentyl (3R,6S)-8-((S)-1-((3-amino-3-oxopropyl)amino)-1-oxo-3-phenylpropan-2-yl)-6-benzyl-3-methyl-4,7-dioxohexahydro-pyrazino[2,1-c] [1,2,4]oxadiazine-1(6H)-carboxylate], the inhibition at 10 µM was found to be 78.4%.

Regarding `C[C@H]1ON(C(=O)OCCc2ccccc2)C2CN([C@@H](Cc3ccccc3)C(=O)NCCC(N)=O)C(=O)[C@H](Cc3ccccc3)N2C1=O` (stereo partly drawn) [Compound I-85, phenethyl (3R,6S)-8-((S)-1-((3-amino-3-oxopropyl)amino)-1-oxo-3-phenylpropan-2-yl)-6-benzyl-3-methyl-4,7-dioxohexahydro-pyrazino[2,1-c] [1,2,4]oxadiazine-1(6H)-carboxylate], the inhibition at 10 µM amounted to 66.5%.

As to `C[C@H]1ON(C(=O)OCCc2ccc(O)cc2)C2CN([C@@H](Cc3ccccc3)C(=O)NCCC(N)=O)C(=O)[C@H](Cc3ccccc3)N2C1=O` (stereo partly drawn) [Compound I-86, 4-hydroxyphenethyl (3R,6S)-8-((S)-1-((3-amino-3-oxopropyl)amino)-1-oxo-3-phenylpropan-2-yl)-6-benzyl-3-methyl-4,7-dioxohexahydro-pyrazino[2,1-c] [1,2,4]oxadiazine-1(6H)-carboxylate], the inhibition at 10 µM came to 70.9%.

As to `CC(C)CCOC(=O)N1O[C@H](C)C(=O)N2C1CN([C@@H](Cc1ccccc1)C(=O)NCCCC(N)=O)C(=O)[C@@H]2Cc1ccccc1` (stereo partly drawn) [Compound I-87, isopentyl (3R,6S)-8-((S)-1-((4-amino-4-oxobutyl)amino)-1-oxo-3-phenylpropan-2-yl)-6-benzyl-3-methyl-4,7-dioxohexahydro-pyrazino[2,1-c] [1,2,4]oxadiazine-1(6H)-carboxylate], the inhibition at 10 µM worked out at 58.3%.

Consider `CC(C)CCOC(=O)N1O[C@H](C)C(=O)N2C1CN([C@@H](Cc1ccccc1)C(=O)NCCO)C(=O)[C@@H]2Cc1ccccc1` (stereo partly drawn) [Compound I-88, isopentyl (3R,6S)-6-benzyl-8-((S)-1-((2-hydroxyethyl)amino)-1-oxo-3-phenylpropan-2-yl)-3-methyl-4,7-dioxohexahydropyrazino[2,1-c][1,2,4]oxadiazine-1(6H)-carboxylate], for which the inhibition at 10 µM worked out at 63.9%.

As to `CC(C)CCOC(=O)N1O[C@H](C)C(=O)N2C1CN([C@@H](Cc1ccccc1)C(=O)NCCCO)C(=O)[C@@H]2Cc1ccccc1` (stereo partly drawn) [Compound I-89, isopentyl (3R,6S)-6-benzyl-8-((S)-1-((3-hydroxypropyl)amino)-1-oxo-3-phenylpropan-2-yl)-3-methyl-4,7-dioxohexahydropyrazino[2,1-c][1,2,4]oxadiazine-1(6H)-carboxylate], the inhibition at 10 µM is 58.3%.

As to `CC(C)CCNC(=O)[C@H](Cc1ccccc1)N1CC2N(C(=O)OCCc3ccccc3)O[C@H](CCC(N)=O)C(=O)N2[C@@H](Cc2ccccc2)C1=O` (stereo partly drawn) [Compound I-90, phenethyl (3R,6S)-3-(3-amino-3-oxopropyl)-6-benzyl-8-((S)-1-(isopentylamino)-1-oxo-3-phenylpropan-2-yl)-4,7-dioxohexahydropyrazino[2,1-c][1,2,4]oxadiazine-1(6H)-carboxylate], the inhibition at 10 µM is 62.4%.

Consider `CC(C)CCNC(=O)[C@H](CC(C)C)N1CC2N(C(=O)OCCc3ccc(O)cc3)O[C@H](CC(C)C)C(=O)N2[C@@H](Cc2ccc(O)cc2)C1=O` (stereo partly drawn) [Compound I-91, 4-hydroxyphenethyl (3R,6S)-6-(4-hydroxybenzyl)-3-isobutyl-8-((S)-1-(isopentylamino)-4-methyl-1-oxopentan-2-yl)-4,7-dioxohexahydropyrazino[2,1-c][1,2,4]oxadiazine-1(6H)-carboxylate], for which the inhibition at 10 µM was found to be 51%.

For the compound `CCCCCOC(=O)N1O[C@H](CC(C)C)C(=O)N2C1CN([C@@H](Cc1ccccc1)C(=O)NCCC(C)C)C(=O)[C@@H]2Cc1ccc(O)cc1` (stereo partly drawn) [Compound I-92, pentyl (3R,6S)-6-(4-hydroxybenzyl)-3-isobutyl-8-((S)-1-(isopentylamino)-1-oxo-3-phenylpropan-2-yl)-4,7-dioxohexahydropyrazino[2,1-c][1,2,4]oxadiazine-1(6H)-carboxylate], the inhibition at 10 µM is 50.1%.

Turning to `CC(C)C[C@H]1ON(C(=O)OCCc2ccc(O)cc2)C2CN([C@@H](Cc3ccccc3)C(=O)NCCc3ccccc3)C(=O)[C@H](Cc3ccc(O)cc3)N2C1=O` (stereo partly drawn) [Compound I-93, 4-hydroxyphenethyl (3R,6S)-6-(4-hydroxybenzyl)-3-isobutyl-4,7-dioxo-8-((S)-1-oxo-1-(phenethylamino)-3-phenylpropan-2-yl)hexahydropyrazino[2,1-c][1,2,4]oxadiazine-1(6H)-carboxylate], the inhibition at 10 µM stood at 76.3%.

In the case of `CC(C)CCNC(=O)[C@H](Cc1ccc(O)cc1)N1CC2N(C(=O)OCCC(C)C)O[C@H](CC(C)C)C(=O)N2[C@@H](Cc2ccc(O)cc2)C1=O` (stereo partly drawn) [Compound I-94, isopentyl (3R,6S)-6-(4-hydroxybenzyl)-8-((S)-3-(4-hydroxyphenyl)-1-(isopentylamino)-1-oxopropan-2-yl)-3-isobutyl-4,7-dioxohexahydropyrazino[2,1-c][1,2,4]oxadiazine-1(6H)-carboxylate], the inhibition at 10 µM turned out to be 57.8%.

Take `CC(C)CCNC(=O)[C@H](Cc1ccc(O)cc1)N1CC2N(C(=O)OCCc3ccc(O)cc3)O[C@H](CC(C)C)C(=O)N2[C@@H](Cc2ccc(O)cc2)C1=O` (stereo partly drawn) [Compound I-95, 4-hydroxyphenethyl (3R,6S)-6-(4-hydroxybenzyl)-8-((S)-3-(4-hydroxyphenyl)-1-(isopentylamino)-1-oxopropan-2-yl)-3-isobutyl-4,7-dioxohexahydropyrazino[2,1-c][1,2,4]oxadiazine-1(6H)-carboxylate]: the inhibition at 10 µM was determined as 60.1%.

In the case of `CCCCCOC(=O)N1O[C@H](CC(C)C)C(=O)N2C1CN([C@@H](Cc1ccc(O)cc1)C(=O)NCCC(C)C)C(=O)[C@@H]2Cc1ccc(O)cc1` (stereo partly drawn) [Compound I-96, pentyl (3R,6S)-6-(4-hydroxybenzyl)-8-((S)-3-(4-hydroxyphenyl)-1-(isopentylamino)-1-oxopropan-2-yl)-3-isobutyl-4,7-dioxohexahydropyrazino[2,1-c][1,2,4]oxadiazine-1(6H)-carboxylate], the inhibition at 10 µM stood at 56.3%.

On to `CCCC[C@@H](C(=O)NCCC(C)C)N1CC2N(C(=O)OCCc3ccc(O)cc3)O[C@H](CC(C)C)C(=O)N2[C@@H](Cc2ccc(O)cc2)C1=O` (stereo partly drawn) [Compound I-97, 4-hydroxyphenethyl (3R,6S)-6-(4-hydroxybenzyl)-3-isobutyl-8-((S)-1-(isopentylamino)-1-oxohexan-2-yl)-4,7-dioxohexahydropyrazino[2,1-c][1,2,4]oxadiazine-1(6H)-carboxylate], for which the inhibition at 10 µM worked out at 57.3%.

For `CC(C)CCCNC(=O)[C@H](Cc1ccc(O)cc1)N1CC2N(C(=O)OCCC(C)C)O[C@H](CC(C)C)C(=O)N2[C@@H](Cc2ccc(O)cc2)C1=O` (stereo partly drawn) [Compound I-98, isopentyl (3R,6S)-6-(4-hydroxybenzyl)-8-((S)-3-(4-hydroxyphenyl)-1-((4-methylpentyl)amino)-1-oxopropan-2-yl)-3-isobutyl-4,7-dioxohexahydropyrazino [2,1-c][1,2,4]oxadiazine-1(6H)-carboxylate], the inhibition at 10 µM stood at 60.4%.

Consider `CC(C)CCCNC(=O)[C@H](Cc1ccc(O)cc1)N1CC2N(C(=O)OCCc3ccccc3)O[C@H](CC(C)C)C(=O)N2[C@@H](Cc2ccc(O)cc2)C1=O` (stereo partly drawn) [Compound I-99, phenethyl (3R,6S)-6-(4-hydroxybenzyl)-8-((S)-3-(4-hydroxyphenyl)-1-((4-methylpentyl)amino)-1-oxopropan-2-yl)-3-isobutyl-4,7-dioxohexahydropyrazino [2,1-c][1,2,4]oxadiazine-1(6H)-carboxylate], for which the inhibition at 10 µM worked out at 58%.

For `CCCCCOC(=O)N1O[C@H](CC(C)C)C(=O)N2C1CN([C@@H](Cc1ccc(O)cc1)C(=O)NCCCC(C)C)C(=O)[C@@H]2Cc1ccc(O)cc1` (stereo partly drawn) [Compound I-100, pentyl (3R,6S)-6-(4-hydroxybenzyl)-8-((S)-3-(4-hydroxyphenyl)-1-((4-methylpentyl)amino)-1-oxopropan-2-yl)-3-isobutyl-4,7-dioxohexahydropyrazino [2,1-c][1,2,4]oxadiazine-1(6H)-carboxylate], the inhibition at 10 µM was 63.8%.

For the origin of these results see patent US20230374034A1, “NOVEL BICYCLIC COMPOUNDS” (PRISM BIOLAB CO., LTD., priority 2020, published 2023).
